Patent US10780043B2, “Cosmetic compositions comprising ginger root extracts” (Symrise AG, priority 2015, dated 2020)

Tested on: CYP1A1 gene expression
Assay: CYP1A1 gene expression (qRT-PCR) in keratinocytes after induction with model particles
Type: cell-based, human
Details: 10 μM, untreated = 1
Description: Gene expression was analyzed via qRT-PCR.

## E/Z-2-benzylindene-5,6-dimethoxy-3,3-dimethylindan-1-one [BDDI]
NHEK adult, SRM1650 1.5 μg/cm2, 6 h
  CYP1A1 Induction mean ± SE: 0.02 ± 0.00
NHEK adult, SRM2975 1.5 μg/cm2, 6 h
  CYP1A1 Induction mean ± SE: 0.20 ± 0.00
NHEK adult, SRM2975 1.5 μg/cm2, 24 h
  CYP1A1 Induction mean ± SE: 0.01 ± 0.00
Indoor particles Huber990 1.5 μg/cm2, 6 h
  CYP1A1 Induction mean ± SE: 0.05 ± 0.00
Indoor particles Huber990 1.5 μg/cm2, 24 h
  CYP1A1 Induction mean ± SE: 0.20 ± 0.00
